Measured values from patent publication US10035820B2, “Compounds which inhibit neuronal exocytosis” (Lubrizol Advanced Materials, Inc., priority 2012, dated 2018).

System: human neuroblastoma cell line
Assay: Release of noradrenaline induced by TPA/Ionomycin in a neuroblastoma cell line, quantified by ELISA
Assay type: cell-based
Conditions: TPA/ION control = 100
Protocol: The induction of the release of noradrenaline with TPA (12-O-tetradecanoylphorbol-13-acetate)/Ionomycin enables direct measurement of neuronal exocytosis. For the study of the inhibitory effect of the compounds of the invention on the release of noradrenaline, cells of a human neuroblastoma cell line were pre-incubated (1×10^6 cells/well) for 60 minutes with the compound of the invention (1 μM, 10 μM, 100 μM, 500 μM or 1 mM compounds), and afterward the release of noradrenaline was induced. The release of the noradrenaline neurotransmitter was induced by an 8 minute pre-treatment with a solution of 12-O-tetradecanoylphorbol-13-acetate (TPA) 100 nM, which mobilized the intracellular vesicles which contained the neurotransmitter; followed by a 5 minute incubation with TPA/Ionomycin (100 nM/10 μM), which induced the release of the neurotransmitter contained in these vesicles. […] For this, absorbance at 405 nm was measured in Thermo Scientific Multiskan Ascent equipment.
The blocking of the SNARE complex by the compounds of the invention lead to an inhibition of neuronal exocytosis and therefore, a decrease in the levels of released noradrenaline (Table 6).

| Substance | % RELEASED NORADRENALINE Average (1 μM compound) | % RELEASED NORADRENALINE Average (10 μM compound) | % RELEASED NORADRENALINE Average (100 μM compound) | % RELEASED NORADRENALINE Average (500 μM compound) | % RELEASED NORADRENALINE Average (1000 μM compound) |
| --- | --- | --- | --- | --- | --- |
| Ac-EELKRWM-NH2 [Ac-SEQ ID NO: 116-NH2] | 87.59% | 83.30% | 62.24% | 52.82% | 43.10% |
| Ac-ENLKRWM-NH2 [Ac-SEQ ID NO: 117-NH2] | 87.99% | 83.11% | 70.76% | 58.37% | 54.64% |
